In brackets after ≈: the same amount, converted by molar mass.
Columns and labels:
[1] = Cytotoxicity against MT-4 cells without virus (Trypane Blue staining, viable cell count); format: cell-based; conditions: human, no virus added, read-out: CC50 (50% cytotoxicity)
Method: Furthermore, cytotoxicity of Compound (lH) and Compound (lP) against MT-4 cells was examined without adding virus. After staining with […] Blue, viable cells were counted. Based on the count of viable cells where the chemical was added and where no chemical was added, a degree of inhibition was calculated. A concentration of the chemical and the degree of inhibition were plotted on semilogarithmic paper to determine 50% cytotoxicity (CC50 value).

AIDS virus = assay: Anti-AIDS viral activity: virus antigen in infected MT-4 cells by indirect fluorescent antibody method; format: cell-based; conditions: Human immunodeficiency virus 1, MT4, compound added 2 hours before virus, 10^3 to 10^4 infection units, cultured 4 days, read-out: EC50 (50% infection inhibitory concentration)
Method: After 0.5 ml of cell suspension prepared from MT-4 cells in 1×10^5 /ml was charged in a 24 well tray, 50 μl of a solution containing a predetermined quantity of Compound (lH) or Compound (lP) was added to the suspension. After culturing at 37° C. for 2 hours in 5% (v/v) carbon dioxide incubator, 10^3 to 10^4 infection units of AIDS virus were added and cultured for 4 days. Then, a part of the culture medium was applied onto a slide glass and immobilized with acetone, after which development of virus antigen was observed by indirect fluorescent antibody method. As the primary antibody of the fluorescent antibody method, a serum of AIDS patient was used. As its secondary antibody, FITC-labelled anti-human IgG antibody was used. Based on a proportion of the infected cells and non-infected cells where the chemical was added and where no chemical was added, a rate of infection was calculated. A concentration of the chemical and the rate of infection were plotted on semilogarithmic paper to determine 50% infection inhibitory concentration (EC50 value).

Row | EC50 (AIDS virus) [µg/mL] | SMILES | CC50 [1] [µg/mL]
1 | 0.035 (≈ 0.139 µM) | Nc1nnnc2c1ncn2[C@@H]1O[C@H](CO)[C@H]1CO [Compound (1H)] | > 100
2 | 0.14 (≈ 0.421 µM) | Nc1nnnc2c1ncn2[C@@H]1O[C@H](COP(=O)(O)O)[C@H]1CO [Compound (1P)] | > 100

Source: US5028598A, “Oxetanocin derivatives and their salts as well as use thereof” (Nippon Kayaku Kabushiki Kaisha, priority 1989, dated 1991)
